Values quoted from earlier work, collected in US20250295594A1, “ENTERAL SUSTAINED-RELEASE SUGAR ALCOHOL ADDITIVE AND PREPARATION METHOD AND APPLICATION THEREOF” (ZHEJIANG HUAKANG PHARMACEUTICAL CO., LTD., priority 2020, published 2025).

Conditions: existing experimental data, unformulated sugar / sugar alcohol

| absorption rate of the small intestine | Compound |
| --- | --- |
| 70% | O=C[C@H](O)[C@@H](O)[C@@H](O)CO [arabinose, L-arabinose] |
| 60% | OC[C@@H](O)[C@H](O)[C@@H](O)CO [xylitol] |
